Patent US20210205264A1, “USE OF DELTA-TOCOTRIENOL FOR TREATING CANCER” (H. LEE MOFFITT CANCER CENTER & RESEARCH INSTITUTE INC., priority 2018, published 2021)
Peptide text beside a SMILES is read from it. * marks the point of attachment. Cbz = O=C(OCc1ccccc1)*

How the values were obtained:
CCSCs [1] = experiment: Annexin V FITC/PI flow cytometry apoptosis assay in CCSCs; format: cell-based, human; conditions: CCSCs
Procedure: (§1) FIGS. 10A, 10B, 10C, and 10D show induction of apoptosis measured by flow cytometry (FIG. 10A) and confocal microscopy (FIG. 10B) in CCSCs after treatment with vehicle, aspirin, d-T3, and aspirin+d-T3. Effect of BID inhibitor on apoptosis in CCSCs after treatment with aspirin or d-T3 (FIG. 10C). Induction oft-BID in CCSCs after treatment with vehicle, aspirin, d-T3, and aspirin+d-T3 (FIG. 10D).
(§2) d-T3 can induce selective killing of CCSCs through the BH3 interacting-domain death agonist (BID). […] It should be noted that these in vitro results are consistent with the in vivo observation of the selective induction of apoptosis in APC mutant colon crypt cells in the ApcMin/+ mice but not in the normal intestinal cells of the AOM rat CRC model or NOD/SCID mice. […] Although the proapoptotic activity of d-T3 is a consistent observation of d-T3 anticancer activity in all of the published reports, the mechanism by which d-T3 induces apoptosis is poorly understood. Apoptotic death is regulated by the death receptor (extrinsic) and mitochondrial (intrinsic) pathways. These 2 pathways crosstalk under certain conditions through caspase-8-mediated cleavage of BID, a BH3-only Bcl-2 family member. The activated and truncated BID (tBID) then engages the intrinsic pathway for efficient apoptosis induction. To obtain preliminary information regarding the mechanisms by which d-T3 induces apoptosis in CCSCs, the activation of BID was measured after 24-hour treatment with vehicle, aspirin (5 mM), d-T3 (50 μM), and aspirin combined with d-T3 in CCSCs by Western blotting.

ApcMin/+ mice = experiment: Adenoma (intestinal polyp) formation in ApcMin/+ mice; format: in vivo
Source text: FIGS. 1A and 1B show the number of intestinal polyps (FIG. 1A) and H&E staining of polyps (FIG. 1B) in ApcMin/+ mice treated with vehicle (V), aspirin (Asp), d-T3, and combination of aspirin+d-T3. Black dots in FIG. 1B point out polyps in the intestine. Although substantial preclinical evidence exists regarding the preventive activity of d-T3 and g-T3 in various types of cancers, there is no report of d-T3 prevention of colon cancer despite evidence of activity in colon cell lines and xenograft models. […] Treatment with aspirin alone reduced adenoma formation by 38%, and treatment with d-T3 alone reduced adenoma formation by 44%, while treatment with the combination of aspirin and d-T3 reduced adenoma formation by 58%.

BID = experiment: Activation of BID (tBID) by Western blotting in CCSCs; format: cell-based, human; conditions: 24-hour treatment; aspirin 5 mM, d-T3 50 μM
Procedure: as §1
as §2, with “These 2 pathways crosstalk under certain conditions through caspase-8-mediated cleavage of BID, a BH3-only Bcl-2 family member. The activated and truncated BID (tBID) then engages the intrinsic pathway for efficient apoptosis induction.” left out

human CCSCs = experiment: Orthotopic (cecum) model of luciferase expressing human CCSCs in NOD-SCID mice; format: in vivo
Procedure: FIGS. 8A, 8B, 8C, and 8D show growth of cecal tumor volume (FIGS. 8A & 8B) and liver metastasis score (FIGS. 8C & 8D) in orthotopic model of CCSCs after treatment with vehicle, aspirin, d-T3, and aspirin+d-T3.
In vivo model of human CCSC were developed by implanting the stably transfected luciferase expressing CCSCs in the cecum of NOD-SCID mice. In this model, tumor growth, metastasis, and survival are monitored twice weekly by IP injection of luciferin (150 mg/kg body weight) and imaged using the IVIS 200 Bioluminescence imaging system. […] These findings strongly indicate that d-T3 targets CCSCs and enhances the ability of aspirin to target these cells.

CCSCs [2] = experiment: miRNA profiles in CCSCs; format: cell-based, human; conditions: 24-hour treatment; aspirin 5 mM, d-T3 10 μM
Source text: Given the results, and without intending to be bound by any theory, it appears that the induction of apoptosis can be one mechanism by which d-T3 prevents CRC and augments CRC prevention activity. BID knockout can diminish this effect. The biorepository as well as materials generated from studies can be used to explore other mechanisms of d-T3 action such as anti-inflammatory, mediation of the immune system, anti-angiogenesis, and alterations in metabolism. To this end, miRNA profiles were conducted that are altered with d-T3, aspirin, and d-T3 with aspirin treatment in CCSCs. To discover early miRNAs that are likely to influence activity, these cells were deliberately treated with doses of these agents at a duration when there were no phenotypic changes of apoptosis.

colon polyps = conditions: patients with stage I-III colon cancer following treatment; 27% without aspirin; cited from earlier work
[3] = tested on: intestinal stem cells of ApcMin/+ mice; experiment: Caspase 3 staining of intestinal crypts in ApcMin/+ mice; format: in vivo; conditions: small intestinal crypts of ApcMin/+ mice
Source text: Although substantial preclinical evidence exists regarding the preventive activity of d-T3 and g-T3 in various types of cancers, there is no report of d-T3 prevention of colon cancer despite evidence of activity in colon cell lines and xenograft models. […] Treatment with aspirin alone reduced adenoma formation by 38%, and treatment with d-T3 alone reduced adenoma formation by 44%, while treatment with the combination of aspirin and d-T3 reduced adenoma formation by 58%.

hCAS [4] = biological target: T1, hCAS (Homo sapiens, UniProt P55060); experiment: Competitive affinity-isolation of hCAS in MiaPaCa-2 cell lysate; format: binding; conditions: excess free compound
T1 construct: endogenous in cells; host or cells: MiaPaCa-2 human pancreatic cancer cells
T1 sequence (P55060 1-971): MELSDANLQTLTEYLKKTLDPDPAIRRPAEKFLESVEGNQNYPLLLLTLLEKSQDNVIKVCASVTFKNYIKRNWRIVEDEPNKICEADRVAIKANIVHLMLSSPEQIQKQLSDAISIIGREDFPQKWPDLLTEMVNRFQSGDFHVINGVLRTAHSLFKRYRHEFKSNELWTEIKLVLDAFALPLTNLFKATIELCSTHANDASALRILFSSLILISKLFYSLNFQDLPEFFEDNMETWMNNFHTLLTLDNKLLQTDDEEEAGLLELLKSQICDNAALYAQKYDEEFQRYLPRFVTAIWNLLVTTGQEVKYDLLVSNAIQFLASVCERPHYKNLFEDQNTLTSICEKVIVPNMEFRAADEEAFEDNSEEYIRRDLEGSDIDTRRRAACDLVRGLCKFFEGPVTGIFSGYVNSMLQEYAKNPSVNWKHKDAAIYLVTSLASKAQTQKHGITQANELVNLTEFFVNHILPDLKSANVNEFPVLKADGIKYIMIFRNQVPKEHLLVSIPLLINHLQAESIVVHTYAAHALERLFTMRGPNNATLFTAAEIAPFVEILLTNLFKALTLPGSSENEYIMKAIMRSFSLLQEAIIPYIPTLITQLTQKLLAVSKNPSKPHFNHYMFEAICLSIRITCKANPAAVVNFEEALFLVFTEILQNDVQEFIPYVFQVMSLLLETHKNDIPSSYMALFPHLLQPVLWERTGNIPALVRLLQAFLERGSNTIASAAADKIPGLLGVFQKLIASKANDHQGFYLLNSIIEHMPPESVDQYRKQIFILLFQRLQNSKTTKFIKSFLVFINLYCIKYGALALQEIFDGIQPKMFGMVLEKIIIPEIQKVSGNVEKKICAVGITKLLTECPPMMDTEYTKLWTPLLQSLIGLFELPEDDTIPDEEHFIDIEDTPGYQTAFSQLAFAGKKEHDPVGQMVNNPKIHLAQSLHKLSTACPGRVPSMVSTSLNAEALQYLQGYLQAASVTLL
Procedure: This experiment used a synthetic biotin-δ-tocotrienol conjugate (shown below to inhibit growth activity of cultured MiaPaca-2 human pancreatic cancer cells) to confirm affinity-isolation of hCAS. To confirm that δ-T3 binds to hCAS in intact cells, biotinylated δ-T3 (B-δ-T3) was prepared by chemically coupling the —OH group of δ-T3 to the —COOH of biotin using a PEG-iodoactamide linker (FIG. 18). […] Affinity-isolation of hCAS was inhibited in the presence of free δ-tocotrienol but not with free δ-tocopherol.

MiaPaCa-2 cell = MiaPaCa-2 cell viability at increasing concentrations; format: cell-based, human; conditions: increasing concentrations
β-catenin = β-catenin immunofluorescence and Western blot in CCSCs; format: cell-based, human; conditions: MG132 25 μM, 3-methyladenine 10 mM, caspase 3 inhibitor 20 μM, calpain II inhibitor 25 μM
Source text: FIGS. 9A, 9B, 9C, and 9D show quantification of β-catenin in the nucleus and cytoplasm of CCSCs with confocal microscopy (FIGS. 9A & 9B) after treatment with vehicle, aspirin, d-T3, and aspirin+d-T3.
As noted above, stability of the β-catenin complex by inactivation of APC leads to stabilization and nuclear translocation of β-catenin and to transcriptional activation of β-catenin target genes such as c-Myc and cyclin D1. […] Furthermore, d-T3 inhibition of CCSCs is associated with the downregulation of β-catenin, c-Myc, cyclin D1, and survivin as measured by Western blot in CCSCs (FIG. 9D).

hCAS [5] = biological target: T1, hCAS; experiment: Streptavidin bead capture of hCAS from treated MiaPaCa-2 cells; format: binding; conditions: MiaPaCa-2 cells treated 24 hours
Procedure: To confirm that δ-T3 binds to hCAS in intact cells, biotinylated δ-T3 (B-δ-T3) was prepared by chemically coupling the —OH group of δ-T3 to the —COOH of biotin using a PEG-iodoactamide linker (FIG. 18).
MiaPaCa-2 human pancreatic cancer cells were treated for 24 hours with biotin alone (B), B-δ-T3 or B-TOCOPH. The cells were then lysed, and the lysates incubated with streptavidin beads, and the captured proteins processed for Western blotting.

**Q.** For `COc1ccc(S(=O)(=O)NCCCC(=O)Nc2ccc(Sc3ccc(N)cc3)cc2)cc1` [BI-6C9], which “effect of BID inhibitor on induction of apoptosis by aspirin” value (CCSCs [1]) is on record?
**A.** not

**Q.** What about the “effect of BID inhibitor on induction of apoptosis by d-T3” value (CCSCs [1]) of the same compound?
**A.** negates the induction of apoptosis

**Q.** Which results are given for `CC(=O)Oc1ccccc1C(=O)O` [aspirin, reference compound]?
**A.** reduced adenoma formation (ApcMin/+ mice): 38%; activation of tBID (BID): did not; growth of human CRC stem cells (cecal tumor) (human CCSCs): inhibited; metastases of human CRC stem cells (human CCSCs; liver metastasis): inhibited; down-regulation of miRNAs compared with vehicle (number) (CCSCs [2]): 4 miRNAs; up-regulation of miRNAs compared with vehicle (number) (CCSCs [2]): 2 miRNAs; rate of polyp formation at 1-year colonoscopy (colon polyps): 17%; apoptosis detected by caspase 3 staining [3]: minimal to no staining

**Q.** Which results are given for `Cc1cc(O)cc2c1O[C@](C)(CCC[C@H](C)CCC[C@H](C)CCCC(C)C)CC2` [TOCOPH, δ-Tocopherol, reference compound]?
**A.** affinity-isolation of hCAS / hCAS binding to biotin-T3 in presence of free competitor (hCAS [4]): does not; affinity-isolation of hCAS / hCAS binding to biotin-T3 in presence of free competitor (hCAS [4]; listed as δ-tocopherol): not; effect on cell viability (MiaPaCa-2 cell): least effect

**Q.** Which “effect on d-T3 induced degradation of β-catenin” value (β-catenin) does the source give for `CC(C)C[C@@H](C=O)NC(=O)[C@H](CC(C)C)NC(=O)[C@H](CC(C)C)NC(=O)OCc1ccccc1` [MG132, reference compound] (Cbz-Leu-Leu-Leu-aldehyde) here?
**A.** inhibited

**Q.** Which “effect on d-T3 induced degradation of β-catenin” value (β-catenin) does the source give for `Cn1cnc(N)c2ncnc1-2` [3-methyladenine, reference compound] here?
**A.** inhibited

**Q.** For `O=C(O)CCCC[C@@H]1SC[C@@H]2NC(=O)N[C@@H]21` [biotin], which “hCAS bound by streptavidin beads from lysates of treated cells” value (hCAS [5]) is on record?
**A.** not
